# Measured values from patent US20260356851A1, “TRICYCLIC COMPOUNDS AND USES THEREOF” (HUTCHMED LIMITED, priority 2023, published 2026).
# Assays:
# Type in all cases: cell-based
# [1] = target: T1, pERK1/2 (Thr202/Tyr204), PANC-1 (KRAS G121D) (Homo sapiens, UniProt P01116, G12D); test: Assay of intracellular pERK1/2 (Thr202/Tyr204) phosphorylation in PANC-1 cells (KRAS G12D); details: pERK1/2, 2 days, read-out: PANC-1 (KRAS G12D) IC50
# T1 construct: pERK1/2 HTRF read-out
# Summary of the method: (§1)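 Cells (10000-12000/well) exposed to 3-fold compound dilutions for 2 days at 37 °C, then lysed; pERK1/2 (Thr202/Tyr204) measured by HTRF with d2 and cryptate antibodies, 665/615 nm ratio.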
# [2] = target: T2, pERK1/2 (Thr202/Tyr204), NCI-1H441 (KRAS G12V) (Homo sapiens, UniProt P01116, G12V); test: Assay of intracellular pERK1/2 (Thr202/Tyr204) phosphorylation in NCI-H441 cells (KRAS G12V); details: pERK1/2, 2 days, read-out: NCI-H441 (KRAS G12V) IC50
# T2 construct: pERK1/2 HTRF read-out
# T2 sequence (P01116 1-188 isoform P01116-2 G12V): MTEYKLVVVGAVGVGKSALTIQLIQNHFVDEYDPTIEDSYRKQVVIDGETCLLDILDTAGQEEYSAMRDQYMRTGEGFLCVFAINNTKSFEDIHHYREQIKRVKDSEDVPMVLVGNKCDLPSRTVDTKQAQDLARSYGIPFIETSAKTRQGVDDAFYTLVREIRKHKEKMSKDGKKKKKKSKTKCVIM
# Summary of the method: as §1
# [3] = target: T3, pERK1/2 (Thr202/Tyr204), NCI-1H358 (KRAS G12C) (Homo sapiens, UniProt P01116, G12C); test: Assay of intracellular pERK1/2 (Thr202/Tyr204) phosphorylation in NCI-H358 cells (KRAS G12C); details: pERK1/2, 2 days, read-out: NCI-H358 (KRAS G12C) IC50
# T3 construct: pERK1/2 HTRF read-out
# T3 sequence (P01116 1-188 isoform P01116-2 G12C): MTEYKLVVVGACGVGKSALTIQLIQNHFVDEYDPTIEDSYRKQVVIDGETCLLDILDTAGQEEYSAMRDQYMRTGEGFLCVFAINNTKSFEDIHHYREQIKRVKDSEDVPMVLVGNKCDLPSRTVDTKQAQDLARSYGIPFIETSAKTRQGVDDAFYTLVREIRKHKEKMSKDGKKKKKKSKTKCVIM
# Summary of the method: as §1
# T1 sequence (P01116 1-188 isoform P01116-2 G12D): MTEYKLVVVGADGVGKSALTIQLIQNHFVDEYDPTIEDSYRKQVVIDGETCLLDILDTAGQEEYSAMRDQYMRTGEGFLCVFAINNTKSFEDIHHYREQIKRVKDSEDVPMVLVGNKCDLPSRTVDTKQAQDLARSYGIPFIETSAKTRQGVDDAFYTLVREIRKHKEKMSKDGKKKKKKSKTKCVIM
Compound,IC50 [1],IC50 [2],IC50 [3]
"CC(c1cccnc1N)N1CCOc2nc(-c3cc(O)cc(Cl)c3C(F)(F)F)c(F)c3nc(OC[C@@]45CCCN4C[C@H](F)C5)nc1c23 (single isomer, unassigned) [Compound 58, 3-(10-((R or S)-1-(2-aminopyridin-3-yl)ethyl)-4-fluoro-2-(((2R,7aS)-2-fluorotetrahydro-1H-pyrrolizin-7a(5H)-yl)methoxy)-9,10-dihydro-8H-7-oxa-1,3,6,10-tetraazacyclohepta[de]naphthalen-5-yl)-5-chloro-4-(trifluoromethyl)phenol]",147 nM,5 nM,3 nM
Cc1cc2[nH]ncc2c(-c2nc3c4c(nc(OC[C@@]56CCCN5C[C@H](F)C6)nc4c2F)N([C@@H](C)c2cc(F)cnc2N)[C@@H](C)CO3)c1C(F)(F)F [Compound 364],> 100 nM,> 100 nM,> 100 nM
CCOc1nc2c3c(nc(-c4cc(O)cc5ccc(F)c(F)c45)c(F)c3n1)OCCN2C(C)c1cccnc1N (stereo not drawn) [Compound 10],> 1000 nM,797 nM,152 nM
"[2H]C1([2H])Oc2nc(-c3cc(N)c(F)c(C)c3C(F)(F)F)c(F)c3nc(OC[C@@H]4C[C@@H](F)CN4C)nc(c23)N(C(C)c2cccnc2N)C1([2H])[2H] (single isomer, unassigned) [Compound 203, 3-((R or S)-1-(5-(5-amino-4-fluoro-3-methyl-2-(trifluoromethyl)phenyl)-4-fluoro-2-(((2S,4R)-4-fluoro-1-methylpyrrolidin-2-yl)methoxy)-8,9-dihydro-10H-7-oxa-1,3,6,10-tetraazacyclohepta[de]naphthalen-10-yl-8,8,9,9-d4)ethyl)pyridin-2-amine]",> 100 nM,> 100 nM,88 nM
CC(c1cccnc1N)N1c2nc(OC[C@@]34CCCN3C[C@H](F)C4)nc3c(F)c(-c4ccc(F)c5sc(N)c(C(N)=O)c45)nc(c23)OC[C@@H]1C (stereo partly drawn) [Compound 327],> 100 nM,> 100 nM,> 100 nM
"Cc1cc2[nH]ncc2c(-c2nc3c4c(nc(OC[C@@]56CCCN5C[C@H](F)C6)nc4c2F)N(C(C)c2cccnc2N)CCO3)c1C (stereo partly drawn) [Compound 2, 3-(1-(5-(5,6-Dimethyl-1H-indazol-4-yl)-4-fluoro-2-(((2R,7aS)-2-fluorotetrahydro-1H-pyrrolizin-7a(5H)-yl)methoxy)-8,9-dihydro-1OH-7-oxa-1,3,6,10-tetraazacyclohepta[de]naphthalen-10-yl)ethyl)pyridin-2-amine]",321 nM,42 nM,9 nM
CC(c1cccnc1N)N1c2nc(OC[C@@]34CCCN3C[C@H](F)C4)nc3c(F)c(N4CC(O)Cc5ccccc54)nc(c23)OC[C@@H]1C (stereo partly drawn) [Compound 331],> 100 nM,> 100 nM,38 nM
CC(c1cccnc1N)N1c2nc(OC[C@@]34CCCN3C[C@H](F)C4)nc3c(F)c(-c4c5c(cc6[nH]ncc46)CCC5)nc(c23)OC[C@@H]1C (stereo partly drawn) [Compound 343],2 nM,0.6 nM,0.2 nM
CC(c1cccnc1N)N1CCOc2nc(-c3cc(O)cc(Cl)c3C3CC3)c(F)c3nc(OC[C@@H]4CCCCN4C)nc1c23 (stereo partly drawn) [Compound 139],> 100 nM,> 100 nM,91 nM
CC(c1cccnc1N)N1CCOc2nc(-c3cc(N)cc(Cl)c3C3CC3)c(F)c3nc(OC[C@@]45CCCN4C[C@H](F)C5)nc1c23 (stereo partly drawn) [Compound 66],3 nM,0.4 nM,0.2 nM
"[2H]C1([2H])Oc2nc(-c3cc(N)c(F)c(C)c3C(F)(F)F)c(F)c3nc(OC[C@@]45CCCN4C[C@H](F)C5)nc(c23)N(C(C)c2cccnc2N)C1([2H])[2H] (single isomer, unassigned) [Compound 200, 3-((R or S)-1-(5-(5-amino-4-fluoro-3-methyl-2-(trifluoromethyl)phenyl)-4-fluoro-2-(((2R,7aS)-2-fluorotetrahydro-1H-pyrrolizin-7a(5H)-yl)methoxy)-8,9-dihydro-10H-7-oxa-1,3,6,10-tetraazacyclohepta[de]naphthalen-10-yl-8,8,9,9-d4)ethyl)pyridin-2-amine]",63 nM,10 nM,7 nM
Cc1cc(N)cc(-c2nc3c4c(nc(OCC56CCCN5CCC6)nc4c2F)N(C(C)c2cccnc2N)CCO3)c1C(F)(F)F (stereo not drawn) [Compound 87],36 nM,6 nM,3 nM
Cc1cc2[nH]ncc2c(-c2nc3c4c(nc(OC[C@@]56CCCN5C[C@H](F)C6)nc4c2F)N([C@H](C)c2cccnc2N)[C@@H](C2CC2)CO3)c1C(F)(F)F [Compound 390],> 100 nM,31 nM,11 nM
"Cc1cc(N)cc(-c2nc3c4c(nc(OC[C@@]56CCCN5C[C@H](F)C6)nc4c2F)N(C(C)c2cccnc2N)CCO3)c1C(F)(F)F (single isomer, unassigned) [Compound 61, 3-((R or S)-1-(5-(5-amino-3-methyl-2-(trifluoromethyl)phenyl)-4-fluoro-2-(((2R,7aS)-2-fluorotetrahydro-1H-pyrrolizin-7a(5H)-yl)methoxy)-8,9-dihydro-10H-7-oxa-1,3,6,10-tetraazacyclohepta[de]naphthalen-10-yl)ethyl)pyridin-2-amine]",0.6 nM,0.2 nM,0.2 nM
"CC(c1cccnc1N)N1CCOc2nc(-c3cc(O)cc(F)c3C3CC3)c(F)c3nc(OC[C@@H]4CCCN4C)nc1c23 (single isomer, unassigned) [Compound 35, 3-(10-((R or S)-1-(2-aminopyridin-3-yl)ethyl)-4-fluoro-2-(((S)-1-methylpyrrolidin-2-yl)methoxy)-9,10-dihydro-8H-7-oxa-1,3,6,10-tetraazacyclohepta[de]naphthalen-5-yl)-4-cyclopropyl-5-fluorophenol]",399 nM,37 nM,18 nM
"CC(c1cccnc1N)N1CCOc2nc(-c3cc(N)cc(F)c3C(F)(F)F)c(F)c3nc(OC[C@@]45CCCN4C[C@H](F)C5)nc1c23 (single isomer, unassigned) [Compound 89, 3-((R or S)-1-(5-(5-amino-3-fluoro-2-(trifluoromethyl)phenyl)-4-fluoro-2-(((2R,7aS)-2-fluorotetrahydro-1H-pyrrolizin-7a(5H)-yl)methoxy)-8,9-dihydro-10H-7-oxa-1,3,6,10-tetraazacyclohepta[de]naphthalen-10-yl)ethyl)pyridin-2-amine]",> 100 nM,43 nM,26 nM
Cc1c(F)c(N)cc(-c2nc3c4c(nc(OCC56CCCN5CC5(CC5)C6)nc4c2F)N(C(C)c2cccnc2N)CCO3)c1C(F)(F)F (stereo not drawn) [Compound 218],4 nM,1 nM,0.5 nM
Cc1cc2[nH]ncc2c(-c2nc3c4c(nc(OCC5(CN(C)C)CC5)nc4c2F)N(C(C)c2cccnc2N)CCO3)c1C (stereo not drawn) [Compound 5],> 1000 nM,> 1000 nM,710 nM
CC(c1cccnc1N)N1c2nc(OC[C@@]34CCCN3C[C@H](F)C4)nc3c(F)c(-c4cccc5nc(N)nn45)nc(c23)OC[C@@H]1C (stereo partly drawn) [Compound 335],> 100 nM,> 100 nM,> 100 nM
CC(c1cccnc1N)N1c2nc(OC[C@@]34CCCN3C[C@H](F)C4)nc3c(F)c(-c4c5c(cc6[nH]ncc46)CCC5(F)F)nc(c23)OC[C@@H]1C (stereo partly drawn) [Compound 370],2 nM,3 nM,1 nM
"CC(c1cccnc1N)N1CCOc2nc(-c3cc(O)cc(Cl)c3C3CC3)c(F)c3nc(OC[C@@]45CCCN4C[C@H](F)C5)nc1c23 (single isomer, unassigned) [Compound 44, 3-(10-((R or S)-1-(2-aminopyridin-3-yl)ethyl)-4-fluoro-2-(((2R,7aS)-2-fluorotetrahydro-1H-pyrrolizin-7a(5H)-yl)methoxy)-9,10-dihydro-8H-7-oxa-1,3,6,10-tetraazacyclohepta[de]naphthalen-5-yl)-5-chloro-4-cyclopropylphenol]",3 nM,0.6 nM,0.1 nM
CC(c1cccnc1N)N1c2nc(OC[C@@]34CCCN3C[C@H](F)C4)nc3c(F)c(-c4c(F)cc(F)c5sc(N)nc45)nc(c23)OC[C@@H]1C (stereo partly drawn) [Compound 333],6 nM,1 nM,1 nM
"CNc1ncccc1C(C)N1CCOc2nc(-c3cc(N)c(F)c(C)c3C(F)(F)F)c(F)c3nc(OC[C@@]45CCCN4C[C@H](F)C5)nc1c23 (single isomer, unassigned) [Compound 265, 3-((R or S)-1-(5-(5-amino-4-fluoro-3-methyl-2-(trifluoromethyl)phenyl)-4-fluoro-2-(((2R,7aS)-2-fluorotetrahydro-1H-pyrrolizin-7a(5H)-yl)methoxy)-8,9-dihydro-10H-7-oxa-1,3,6,10-tetraazacyclohepta[de]naphthalen-10-yl)ethyl)-N-methylpyridin-2-amine]",> 100 nM,> 100 nM,> 100 nM
"CC(c1cccnc1N)N1CCOc2nc(-c3cc(O)cc(F)c3C3CC3)c(F)c3nc(OC[C@@H]4CCN4CC(F)F)nc1c23 (single isomer, unassigned) [Compound 24, 3-(10-((R or S)-1-(2-aminopyridin-3-yl)ethyl)-2-(((S)-1-(2,2-difluoroethyl)azetidin-2-yl)methoxy)-4-fluoro-9,10-dihydro-8H-7-oxa-1,3,6,10-tetraazacyclohepta[de]naphthalen-5-yl)-4-cyclopropyl-5-fluorophenol]",290 nM,11 nM,3 nM
